Values of other authors, collected in patent USH1286H, “Method for treating peripheral atherosclerotic disease employing a cholesterol lowering drug, an ACE inhibitor, or a combination thereof” (E. R. Squibb & Sons, Inc., priority 1990, dated 1994).

Details: hypercholesterolemic patients; Costa et al., Am. J. Hyperten. 1988

SMILES: C[C@H](CS)C(=O)N1CCC[C@H]1C(=O)O [captopril, 1-[(2S)-3-mercapto-2-methylpropionyl]-L-proline]
- increase of HDL: 27%
- reduction of serum cholesterol: -18%
